This is an account of results in US20170121768A1, “ATRIAL FIBRILLATION THERAPY” (The University of Birmingham, priority 2014, published 2017).

Molecules are shown by their SMILES.

Assay [1] deals with Pitx2c+/- mouse heart (left atrium). Kind of assay: Electrophysiological study in the isolated Langendorff-perfused beating heart, Pitx2c+/- mice. An excerpt: (§1) The inventors studied the effects of the sodium channel blocker flecainide in the isolated, beating heart of wild type mice and mice with a heterozygous deletion of the Pitx2c gene. This mouse model (provided by Nigel Brown, St George's London) is an established model for reduced Pitx2 mRNA expression that is susceptible to AF. […] PITX2c^+/− and WT hearts (3-4 months old), were rapidly excised and Langendorff-perfused to record left atrial (LA) monophasic action potential duration. In this preparation, the beating heart is perfused with a warm, oxygenated modified Krebs-Henseleit solution containing (in mmol/1): NaCl 118; NaHCO3 24.88; KH2PO 1.18; Glucose 5.55; Na-Pyruvate 5; MgSO4 0.83; CaCl2 1.8; KCl 3.52 (95% O2-5% CO2, pH 7.4) at constant perfusion pressure (100±5 mmHg) and coronary flow (4±0.5 ml/min). Thereby, detailed electrophysiological measurements can be taken for 1-2 hours in the beating, functioning, intact heart (perfusate temperature 37° C., perfusion flow rate 3-5 mL/min) (Fabritz et al., Basic Res Cardiol 2003; 98:25-32). An octapolar murine electrophysiology catheter (0.5 mm electrode spacing, CIB'ER MOUSE, NuMED, Hopkinton, N.Y., USA) was inserted into the right atrium (RA) and right ventricle for pacing. Atrial and ventricular electrograms and monophasic action potential (MAP) from the left atrium were simultaneously recorded. After instrumentation, the hearts were subjected to a stabilization period of 10 minutes, followed by observation of spontaneous sinus rhythm for 5 minutes to provoke repolarization-related arrhythmias. Then the right atrium was paced at constant physiological heart rates (80-120 ms paced cycle length) for 1.5 minutes of pacing per heart rate to record steady-state action potential duration, and premature right atrial stimulation was performed using trains of 8 beats following by a premature stimulus in 2 ms steps to determine the effective refractory period (ERP) and inducibility of arrhythmias. Arrhythmias>1 second were counted. The pacing protocol was repeated after adding flecainide acetate (1 μm) to the perfusate. Experiments were accepted for analysis of action potential duration and activation time if they met published quality criteria and if MAPs were stable. […] were accepted for analysis of action potentials and activation times, and signals>0.5 mV amplitude were accepted for evaluation of arrhythmias. Recordings were manually screened for arrhythmias. Atrial fibrillation was defined as >5 closely couple polymorphic consecutive atrial ectopic beats with a cycle length shorter than sinus-rhythm cycle length.

Assay [2] deals with wild type mouse heart (left atrium). Kind of assay: Electrophysiological study in the isolated Langendorff-perfused beating heart, wild type mice.
Excerpt: as §1

The test system of assay [3] is wildtype left atria. Description: Transmembrane potential recordings in isolated, superfused left atria, wild type. Details: species or system mouse. The settings on record: sharp electrodes. The procedure: (§2) Transmembrane action potentials were recorded from isolated superfused left atria using borosilicate glass microelectrodes (tip resistance 15-30 MΩ), filled with 3 M KCl. […] LA were paced at different cycle lengths at 2 ms pulse width at 2× diastolic threshold through bipolar platinum electrodes. APD was analysed off line (spike 2, CED, UK). After 15 min pacing for equilibration, preparations were paced successively at increasing frequencies from 0.5 to 10 Hz, with 200 beats at each frequency to ensure steady state prior to recording.

In assay [4] the test system is Pitx2c+/- left atria. Kind of assay: Transmembrane potential recordings in isolated, superfused left atria, Pitx2c+/-. Details: species or system mouse. The settings on record: sharp electrodes. On the procedure:
as §2

Take `O=C(NCC1CCCCN1)c1cc(OCC(F)(F)F)ccc1OCC(F)(F)F` (centres unmarked) [flecainide]: the “effective refractory period (ERP)” value in assay [1] (Pitx2c+/- hearts after flecainide perfusion, compared with wild-type) is “increases effective refractory periods”. The “suppression of inducible atrial fibrillation” value in assay [1] (Pitx2c+/- hearts with AF at baseline (8/21), flecainide acetate 1 μm in perfusate, premature atrial stimulation) is listed as “suppressed atrial fibrillation in all Pitx2c+/− hearts”; in assay [2] (wild type hearts, flecainide acetate 1 μm in perfusate, premature atrial stimulation) it was “did not suppress atrial fibrillation”. The “atrial action potential duration (APD)” value in assay [1] (Pitx2c+/- hearts, flecainide perfusion, paced cycle lengths 80-100-120 ms) is “does not alter atrial APD”; in assay [2] (WT hearts, flecainide perfusion, paced cycle lengths 80-100-120 ms) it was “does not alter atrial APD”. Also, the post-repolarization refractoriness in assay [1] (Pitx2c+/- mice, 80 ms paced cycle length, flecainide perfusion) was 12 ms; in assay [2] (WT mice, 80 ms paced cycle length, flecainide perfusion), 7.5 ms. Also, the atrial activation times result in assay [1] (Pitx2c+/- mice, after flecainide perfusion) was “marked effect”; in assay [2] (wild-type mice, after flecainide perfusion) it was “negligible effect”. For the same compound, the hearts with arrhythmias in assay [2] (wild type hearts with flecainide (baseline 4/16), arrhythmias >1 second counted) was 4/11. The resting membrane potential entry in assay [3] and in assay [4] was “did not alter resting membrane potential” each time.
As for `CC(C)NCC(O)c1ccc(NS(C)(=O)=O)cc1` (centres unmarked) [sotalol, d,l sotalol], the “atrial APD” value in assay [1] (Pitx2c+/- hearts, sotalol 10 μM, three pairs of mice) was “did not alter atrial APD”; in assay [2] (WT hearts, sotalol 10 μM, three pairs of mice), “prolonged atrial APD”.
